In US11267826B2, “Penicillin-binding protein inhibitors” (priority 2017, dated 2022):

What was measured:
[1] = tested on: E. coli DH5a harboring VIM-2; test: Broth microdilution MIC, engineered E. coli expressing VIM-2; type: cell-based; conditions: Escherichia coli, read-out: MIC, β-lactamase VIM
Method: (§1) To determine the ability of test compounds to potentiate the inhibition of the growth of bacterial strains, classic cell based broth microdilution MIC assays were employed. MIC assays are performed according to CLSI methods except where otherwise noted (CLSI, 2011 and CLSI, 2009). The reference strain S. aureus ATCC 29213 and the hyper-permeable E. coli 901C were used to determine the ability of the PBP compounds to inhibit bacterial growth. Briefly, cryo-preserved bacterial cultures of clinical strains are streaked for isolation on appropriate agar medium, in this case Mueller Hinton II agar. Following incubation to allow formation of colonies these plates are sealed with parafilm and stored refrigerated for up to two weeks. For preparation of assay inocula and to ensure low variability, at least 5 colonies are picked from the agar plates with an inoculating loop and aseptically transferred to a culture tube containing 3 mL of Mueller-Hinton Broth (supplemented with divalent cations to required levels based on Manufacturers' certification). The broth culture is grown for 3-5 hours at 37° C. with shaking at 200 rpm. Meanwhile, 2-fold serial dilutions of test compounds are conducted in a 96 well plate with a final volume of 75 μL per well at 2-fold the final desired concentration. After the dilution plates are set up the growing cultures are then diluted in a cuvette containing MH II broth and the optical density is measured at 600 nm. Inocula are diluted such that 75 μL of this culture in Mueller-Hinton Broth results in a starting bacterial concentration of 5×10^5 CFU/mL when added to the dilution plates. The plates are incubated 16-20 hours at 37° C. The MIC is read visually as the lowest concentration well with no bacterial growth.
(§2) To determine if test compounds were affected by various known β-lactamases, the inhibition of the growth of engineered strains of Escherichia coli harboring select single β-lactamases were tested. […]

[2] = tested on: E. coli DH5a harboring KPC-2; test: microbe, parasite or virus in culture; type: cell-based; conditions: Escherichia coli, read-out: MIC, β-lactamase KPC
Method: To determine the ability of test compounds to potentiate the inhibition of the growth of bacterial strains, classic cell based broth microdilution MIC assays were employed. MIC assays are performed according to CLSI methods except where otherwise noted (CLSI, 2011 and CLSI, 2009). The reference strain S. aureus ATCC 29213 and the hyper-permeable E. coli 901C were used to determine the ability of the PBP compounds to inhibit bacterial growth. Briefly, cryo-preserved bacterial cultures of clinical strains are streaked for isolation on appropriate agar medium, in this case Mueller Hinton II agar. Following incubation to allow formation of colonies these plates are sealed with parafilm and stored refrigerated for up to two weeks. For preparation of assay inocula and to ensure low variability, at least 5 colonies are picked from the agar plates with an inoculating loop and aseptically transferred to a culture tube containing 3 mL of Mueller-Hinton Broth (supplemented with divalent cations to required levels based on Manufacturers' certification). The broth culture is grown for 3-5 hours at 37° C. with shaking at 200 rpm. […] After the dilution plates are set up the growing cultures are then diluted in a cuvette containing MH II broth and the optical density is measured at 600 nm. […] The MIC is read visually as the lowest concentration well with no bacterial growth. […]

S. aureus ATCC 29213 = test: Broth microdilution MIC assay, S. aureus; type: cell-based; conditions: Staphylococcus aureus, ATCC29213; broth microdilution, 16-20 hours at 37° C.; read-out: S. aureus 29213 MIC
Summary of the method: (§3)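 MIC taken by eye as the lowest compound concentration showing no growth after 16-20 hours at 37° C. Cultures grown 3-5 h in cation-supplemented Mueller-Hinton broth were added to 2-fold compound dilution series at a starting density of 5×10^5 CFU/mL, following CLSI methods.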

[3] = tested on: E. coli DH5a harboring NDM-1; test: Broth microdilution MIC, engineered E. coli expressing NDM-1; type: cell-based; conditions: Escherichia coli, read-out: MIC, β-lactamase NDM
Method: as §1, §2

[4] = tested on: E. coli DH5a harboring OXA-48; test: Broth microdilution MIC, engineered E. coli expressing OXA-48; type: cell-based; conditions: Escherichia coli, read-out: MIC, β-lactamase OXA
Method: as §1, §2

[5] = tested on: E. coli DH5a with pLBII plasmid with no β-lactamase gene; test: Broth microdilution MIC, engineered E. coli control strain (pLBII plasmid, no β-lactamase gene); type: cell-based; conditions: Escherichia coli, read-out: MIC, β-lactamase None
Method: as §1, §2

[6] = tested on: E. coli DH5a harboring SHV-5; test: Broth microdilution MIC, engineered E. coli expressing SHV-5; type: cell-based; conditions: Escherichia coli, read-out: MIC, β-lactamase SHV
Method: as §1, §2

E. coli PBP2 = target: T1, E. coli PBP2 (Escherichia coli, UniProt P0AD65); test: Bocillin FL competition binding assay, PBP2; parameters: species or system Escherichia coli K12; conditions: 15 min pre-incubation
T1 construct: 100 μg's of total membrane protein extracts containing PBPs; endogenous in cells; host or cells: Escherichia coli K12, membrane protein fraction
Summary of the method: (§4)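 E. coli K12 membrane extracts (100 µg protein) pre-incubated 15 min with compound (0.005–2,480 µg/mL) in pH 7 phosphate/350 mM NaCl, then labelled with Bocillin FL 30 min at 35°C; SDS-PAGE fluorescence (ex 450/em 520 nm), μg/mL reported. PBP1a/1b unresolved, reported combined.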

E. coli K12 PBP1a/b = test: Bocillin FL competition binding assay, PBP1a/1b combined; parameters: species or system Escherichia coli K12; conditions: 15 min pre-incubation, PBP 1a/1b combined
Summary of the method: as §4

[7] = tested on: E. coli DH5a harboring CTX-M15; test: Broth microdilution MIC, engineered E. coli expressing CTX-M15; type: cell-based; conditions: Escherichia coli, read-out: MIC, β-lactamase CTXM
Method: as §1, §2

E. coli PBP3 = target: T2, E. coli PBP3 (Escherichia coli, UniProt P0AD68); test: Bocillin FL competition binding assay, PBP3; parameters: species or system Escherichia coli K12; conditions: 15 min pre-incubation
T2 construct: 100 μg's of total membrane protein extracts containing PBPs; endogenous in cells; host or cells: Escherichia coli K12, membrane protein fraction
Summary of the method: as §4

[8] = tested on: hyper-permeable E. coli 901C; test: Broth microdilution MIC assay, hyper-permeable E. coli; type: cell-based; conditions: Escherichia coli, read-out: E. coli 901C MIC
Summary of the method: as §3

[9] = tested on: engineered strains of Escherichia coli harboring select single β-lactamases; test: MIC across the panel of engineered E. coli strains harboring select single β-lactamases; type: cell-based; conditions: strains expressing β-lactamases compared with control strain, result in words
Method: To determine if test compounds were affected by various known β-lactamases, the inhibition of the growth of engineered strains of Escherichia coli harboring select single β-lactamases were tested. These strains were constructed by cloning the gene encoding the particular β-lactamase into the NdeI and BamHI restriction endonuclease sites of plasmid pLBII, placing the gene(s) under the control of the Lac promoter.

[10] = tested on: E. coli DH5a harboring TEM-24; test: Broth microdilution MIC, engineered E. coli expressing TEM-24; type: cell-based; conditions: Escherichia coli, read-out: MIC, β-lactamase TEM
Method: as §1, §2

[11] = tested on: E. coli DH5a harboring IMP-18; test: Broth microdilution MIC, engineered E. coli expressing IMP-18; type: cell-based; conditions: Escherichia coli, read-out: MIC, β-lactamase IMP
Method: as §1, §2

T2 sequence (P0AD68 1-577): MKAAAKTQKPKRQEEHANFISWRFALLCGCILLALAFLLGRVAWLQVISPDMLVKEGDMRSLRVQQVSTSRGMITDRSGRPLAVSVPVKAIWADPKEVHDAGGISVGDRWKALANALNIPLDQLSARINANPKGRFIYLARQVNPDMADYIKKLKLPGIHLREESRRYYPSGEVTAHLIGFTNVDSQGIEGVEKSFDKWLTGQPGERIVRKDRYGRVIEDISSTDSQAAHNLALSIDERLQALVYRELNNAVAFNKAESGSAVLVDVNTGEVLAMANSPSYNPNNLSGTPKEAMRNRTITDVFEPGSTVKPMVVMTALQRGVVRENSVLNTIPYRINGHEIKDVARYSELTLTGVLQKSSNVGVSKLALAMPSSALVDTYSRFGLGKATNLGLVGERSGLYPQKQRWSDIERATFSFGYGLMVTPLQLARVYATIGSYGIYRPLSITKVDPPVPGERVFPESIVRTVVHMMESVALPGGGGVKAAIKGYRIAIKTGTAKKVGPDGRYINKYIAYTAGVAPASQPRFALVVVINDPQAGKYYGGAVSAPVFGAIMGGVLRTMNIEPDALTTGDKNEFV
T1 sequence (P0AD65 whole entry): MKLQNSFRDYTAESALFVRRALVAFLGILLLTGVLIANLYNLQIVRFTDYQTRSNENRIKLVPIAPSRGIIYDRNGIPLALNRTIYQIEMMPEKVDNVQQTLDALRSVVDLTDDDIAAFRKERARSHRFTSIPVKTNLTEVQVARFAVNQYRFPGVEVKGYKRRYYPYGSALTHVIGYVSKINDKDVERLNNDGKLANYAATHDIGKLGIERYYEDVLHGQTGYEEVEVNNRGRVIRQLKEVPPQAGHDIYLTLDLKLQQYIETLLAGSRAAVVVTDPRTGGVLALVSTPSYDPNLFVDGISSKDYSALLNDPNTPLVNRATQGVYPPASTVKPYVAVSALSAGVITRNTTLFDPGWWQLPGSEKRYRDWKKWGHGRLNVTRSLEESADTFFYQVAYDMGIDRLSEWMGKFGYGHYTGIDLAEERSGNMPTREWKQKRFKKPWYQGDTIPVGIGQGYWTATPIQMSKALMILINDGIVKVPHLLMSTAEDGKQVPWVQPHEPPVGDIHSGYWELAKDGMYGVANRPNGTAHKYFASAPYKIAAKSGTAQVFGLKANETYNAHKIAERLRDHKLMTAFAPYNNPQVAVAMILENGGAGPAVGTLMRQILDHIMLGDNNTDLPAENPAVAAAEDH

## CO/N=C(\C(=O)N[C@H]1Cc2cccc(C(=O)O)c2OB1O)c1csc(N)n1 [Example 1, (R,Z)-3-(2-(2-aminothiazol-4-yl)-2-(methoxyimino)acetamido)-2-hydroxy-3,4-dihydro-2H-benzo[e][1,2]oxaborinine-8-carboxylic Acid]
[1]
  MIC: 8 µg/mL
[2]
  MIC: 4 µg/mL
S. aureus ATCC 29213
  MIC: 64 to 128 µg/mL
[3]
  MIC: 8 µg/mL
[4]
  MIC: 8 µg/mL
[5]
  MIC: 8 µg/mL
[6]
  MIC: 8 µg/mL
E. coli PBP2
  E. coli PBP2 Potency: A (A represents a potency of >1000 μg/mL)
E. coli K12 PBP1a/b
  E. coli K12 PBP1a/b Potency: C (C represents a potency of <64 μg/mL)
[7]
  MIC: 8 µg/mL
E. coli PBP3
  E. coli PBP3 Potency: C (C represents a potency of <64 μg/mL)
[8]
  MIC: < 64 µg/mL
[9]
  Effect of expressed β-lactamase on MIC: the same MIC values in strains regardless of the β-lactamase expressed
[10]
  MIC: 8 µg/mL
[11]
  MIC: 8 µg/mL
